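A five-concentration, 48-hour dose response in 96-well plates underlies each endpoint, interpolated linearly between surrounding concentrations. Here, GI50 denotes the concentration required for 50% inhibition of growth.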 Active and inactive are the calls of the source. Cut-off read from the data, not from the text of the source: active = GI50 up to about 1.1 µM and inactive = higher.
Columns and labels:
Experiment in all cases: growth of human tumour cells (NCI), 48 h
[1] = test system: OVCAR-8
[2] = test system: A498
[3] = test system: DMS-114
[4] = test system: A549
[5] = test system: Malme-3M
[6] = test system: SK-MEL-5
[7] = test system: SN12C
[8] = test system: OVCAR-3
[9] = test system: KM12
[10] = test system: OVCAR-5
[11] = test system: IGROV-1
[12] = test system: ACHN
[13] = test system: M19-MEL
[14] = test system: SF-268
[15] = test system: HOP-18
[16] = test system: U-251
[17] = test system: SNB-75
[18] = test system: CAKI-1
[19] = test system: SK-OV-3
[20] = test system: TK-10
[21] = test system: DMS-273
[22] = test system: SR
[23] = test system: 786-0
[24] = test system: SK-MEL-2
[25] = test system: HL-60
[26] = test system: NCI-H226
[27] = test system: EKVX
[28] = test system: HT-29
[29] = test system: UO-31
[30] = test system: SF-295
[31] = test system: NCI-H460
[32] = test system: UACC-257
[33] = test system: LOX IMVI
[34] = test system: OVCAR-4
[35] = test system: HOP-62
[36] = test system: CCRF-CEM
[37] = test system: LXFL 529
[38] = test system: NCI-H522
[39] = test system: HCC 2998
[40] = test system: HCT-15
[41] = test system: SF-539
[42] = test system: MOLT-4
[43] = test system: SNB-19
[44] = test system: SK-MEL-28
[45] = test system: HOP-92
[46] = test system: RXF 393
[47] = test system: COLO 205
[48] = test system: M14
[49] = test system: K562
[50] = test system: DLD-1
[51] = test system: RPMI-8226
[52] = test system: NCI-H23
[53] = test system: UACC-62
[54] = test system: SW-620
[55] = test system: XF498
[56] = test system: KM-20L2
[57] = test system: HCT-116
[58] = test system: SNB-78

Compound: COc1cc(NS(=O)(=O)c2ccc(C)cc2)c2nccnc2c1
- GI50 [1]: 26.7 µM (inactive)
- GI50 [2]: 56.2 µM (inactive)
- GI50 [3]: 14.6 µM (inactive)
- GI50 [4]: 24 µM (inactive)
- GI50 [5]: 37.2 µM (inactive)
- GI50 [6]: 23.7 µM (inactive)
- GI50 [7]: 39.3 µM (inactive)
- GI50 [8]: 32.4 µM (inactive)
- GI50 [9]: 32.6 µM (inactive)
- GI50 [10]: 89.7 µM (inactive)
- GI50 [11]: 36.9 µM (inactive)
- GI50 [12]: 23.1 µM (inactive)
- GI50 [13]: 19.5 µM (inactive)
- GI50 [14]: 24.7 µM (inactive)
- GI50 [15]: 93.5 µM (inactive)
- GI50 [16]: 22.1 µM (inactive)
- GI50 [17]: 24.3 µM (inactive)
- GI50 [18]: 37.6 µM (inactive)
- GI50 [19]: 84.9 µM (inactive)
- GI50 [20]: 47 µM (inactive)
- GI50 [21]: 23.6 µM (inactive)
- GI50 [22]: 16.7 µM (inactive)
- GI50 [23]: 36.1 µM (inactive)
- GI50 [24]: 16.6 µM (inactive)
- GI50 [25]: 13 µM (inactive)
- GI50 [26]: 36.9 µM (inactive)
- GI50 [27]: 39.8 µM (inactive)
- GI50 [28]: 36.8 µM (inactive)
- GI50 [29]: 34.4 µM (inactive)
- GI50 [30]: 26.7 µM (inactive)
- GI50 [31]: 13 µM (inactive)
- GI50 [32]: 29.8 µM (inactive)
- GI50 [33]: 28 µM (inactive)
- GI50 [34]: 39.6 µM (inactive)
- GI50 [35]: 33.2 µM (inactive)
- GI50 [36]: 10.3 µM (inactive)
- GI50 [37]: 20.8 µM (inactive)
- GI50 [38]: 20.7 µM (inactive)
- GI50 [39]: 47.6 µM (inactive)
- GI50 [40]: 17.7 µM
- GI50 [41]: 29.2 µM (inactive)
- GI50 [42]: 12.4 µM (inactive)
- GI50 [43]: 29.8 µM (inactive)
- GI50 [44]: 30.7 µM (inactive)
- GI50 [45]: 35.2 µM (inactive)
- GI50 [46]: 14.3 µM (inactive)
- GI50 [47]: 27 µM (inactive)
- GI50 [48]: 17 µM (inactive)
- GI50 [49]: 20.4 µM (inactive)
- GI50 [50]: 30.3 µM (inactive)
- GI50 [51]: 25.5 µM (inactive)
- GI50 [52]: 34.4 µM (inactive)
- GI50 [53]: 14.8 µM (inactive)
- GI50 [54]: 37.8 µM (inactive)
- GI50 [55]: 29 µM (inactive)
- GI50 [56]: 32.1 µM (inactive)

Compound: CCOc1ccccc1NC(=O)/C=C1\NC(=O)CS1
- GI50 [1]: > 100 µM (inactive)
- GI50 [2]: > 100 µM (inactive)
- GI50 [3]: > 100 µM (inactive)
- GI50 [4]: > 100 µM (inactive)
- GI50 [5]: 50.5 µM (inactive)
- GI50 [6]: > 100 µM (inactive)
- GI50 [7]: > 100 µM (inactive)
- GI50 [8]: > 100 µM (inactive)
- GI50 [9]: > 100 µM (inactive)
- GI50 [10]: > 100 µM (inactive)
- GI50 [11]: > 100 µM (inactive)
- GI50 [13]: > 100 µM (inactive)
- GI50 [14]: > 100 µM (inactive)
- GI50 [15]: 98.2 µM (inactive)
- GI50 [16]: > 100 µM (inactive)
- GI50 [57]: > 100 µM (inactive)
- GI50 [17]: 26.9 µM (inactive)
- GI50 [18]: > 100 µM (inactive)
- GI50 [19]: > 100 µM (inactive)
- GI50 [20]: > 100 µM (inactive)
- GI50 [21]: > 100 µM (inactive)
- GI50 [23]: > 100 µM (inactive)
- GI50 [24]: > 100 µM (inactive)
- GI50 [25]: > 100 µM (inactive)
- GI50 [26]: > 100 µM (inactive)
- GI50 [27]: > 100 µM (inactive)
- GI50 [28]: > 100 µM (inactive)
- GI50 [29]: > 100 µM (inactive)
- GI50 [30]: > 100 µM (inactive)
- GI50 [31]: > 100 µM (inactive)
- GI50 [33]: > 100 µM (inactive)
- GI50 [34]: > 100 µM (inactive)
- GI50 [35]: > 100 µM (inactive)
- GI50 [36]: 69 µM (inactive)
- GI50 [37]: > 100 µM (inactive)
- GI50 [38]: 86.1 µM (inactive)
- GI50 [39]: > 100 µM (inactive)
- GI50 [41]: > 100 µM (inactive)
- GI50 [42]: > 100 µM (inactive)
- GI50 [43]: > 100 µM (inactive)
- GI50 [44]: > 100 µM (inactive)
- GI50 [45]: > 100 µM (inactive)
- GI50 [46]: > 100 µM (inactive)
- GI50 [47]: > 100 µM (inactive)
- GI50 [48]: > 100 µM (inactive)
- GI50 [49]: > 100 µM (inactive)
- GI50 [50]: > 100 µM (inactive)
- GI50 [51]: 62.5 µM (inactive)
- GI50 [52]: > 100 µM (inactive)
- GI50 [53]: > 100 µM (inactive)
- GI50 [54]: > 100 µM (inactive)
- GI50 [55]: > 100 µM (inactive)
- GI50 [58]: > 100 µM (inactive)
- GI50 [56]: > 100 µM (inactive)

— ChEMBL document CHEMBL1201862, “PubChem BioAssay data set” (2004)
